Read-outs that look alike come from different tables or passages of the source.
Tests used:
[1] = target: CK1ε (Homo sapiens, UniProt P49674); experiment: CK1ε kinase assay (Caliper LabChip electrophoretic separation of fluoresceinated peptide substrate and product); type: biochemical; details: 200 pM CK1ε, 50 μM ATP, 1.5 μM peptide, 22 hours at room temperature
Summary of the method: (§1)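 Reactions ran 22 hours at room temperature and were stopped with EDTA. Phosphorylated product and unphosphorylated substrate were then separated electrophoretically. Compounds were tested at eleven concentrations, and IC50 values came from non-linear regression.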

[2] = target: CK1δ (Homo sapiens, UniProt P48730); experiment: CK1δ kinase assay (Caliper LabChip electrophoretic separation of fluoresceinated peptide substrate and product); type: biochemical; details: 200 pM CK1δ, 50 μM ATP, 1.5 μM peptide, 22 hours at room temperature
Summary of the method: as §1

Chain of CK1δ (P48730 whole entry): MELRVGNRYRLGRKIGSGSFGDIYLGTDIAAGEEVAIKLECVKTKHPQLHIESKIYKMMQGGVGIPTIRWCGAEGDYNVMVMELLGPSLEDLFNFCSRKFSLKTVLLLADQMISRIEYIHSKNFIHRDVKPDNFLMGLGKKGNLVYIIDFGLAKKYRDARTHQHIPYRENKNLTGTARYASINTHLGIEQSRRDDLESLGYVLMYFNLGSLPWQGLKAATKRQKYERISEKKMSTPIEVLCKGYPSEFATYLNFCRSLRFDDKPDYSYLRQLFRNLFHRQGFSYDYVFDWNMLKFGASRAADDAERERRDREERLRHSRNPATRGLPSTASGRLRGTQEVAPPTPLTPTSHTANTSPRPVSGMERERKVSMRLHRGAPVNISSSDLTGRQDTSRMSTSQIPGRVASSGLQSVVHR
Chain of CK1ε (P49674 whole entry): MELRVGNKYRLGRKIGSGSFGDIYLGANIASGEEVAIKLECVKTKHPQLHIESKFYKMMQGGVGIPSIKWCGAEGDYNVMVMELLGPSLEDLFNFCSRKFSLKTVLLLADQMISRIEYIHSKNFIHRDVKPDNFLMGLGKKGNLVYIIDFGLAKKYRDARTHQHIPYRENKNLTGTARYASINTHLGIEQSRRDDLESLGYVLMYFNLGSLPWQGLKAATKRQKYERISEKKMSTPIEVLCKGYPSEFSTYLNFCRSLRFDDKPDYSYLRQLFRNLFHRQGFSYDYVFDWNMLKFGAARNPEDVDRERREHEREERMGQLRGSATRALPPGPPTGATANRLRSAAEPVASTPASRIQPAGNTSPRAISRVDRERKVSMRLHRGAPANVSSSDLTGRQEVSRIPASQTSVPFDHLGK

Structure (SMILES)	IC50 ([1]; read-out: CK1ε IC50 range) [nM]	IC50 ([2]; read-out: CK1δ IC50 range) [nM]	IC50 ([1]; read-out: CK1ε) [nM]	IC50 ([2]; read-out: CK1δ) [nM]
NC(=O)c1c(-c2ccc(Cl)c(Cl)c2)nn2c1CN(C(=O)NCC1CC(F)(F)C1)CC2 [Compound 205, 2-(3,4-Dichlorophenyl)-N^5-((3,3-difluorocyclobutyl)methyl)-6,7-dihydropyrazolo[1,5-a] pyrazine-3,5(4H)-dicarboxamide]	0.01 to 10	0.01 to 10		
NC(=O)c1c(-c2ccc(F)c(Cl)c2)nn2c1CN(C(=O)N[C@H]1C[C@@H](OC(F)(F)F)C1)CC2 [Compound 261, 2-(3-Chloro-4-fluorophenyl)-N^5-((1r,3r)-3-(trifluoromethoxy)cyclobutyl)-6,7-dihydropyrazolo[1,5-a]pyrazine-3,5(4H)-dicarboxamide]	0.01 to 10	0.01 to 10		
NC(=O)c1c(-c2ccc(Cl)c(Cl)c2)nn2c1CN(C(=O)NC1CC(F)(F)C1)C[C@@H]2CF [Compound A30, (R)-2-(3,4-dichlorophenyl)-N^5-(3,3-difluorocyclobutyl)-7-(fluoromethyl)-6,7-dihydropyrazolo[1,5-a] pyrazine-3,5(4H)-dicarboxamide]	0.01 to 10	0.01 to 10	0.1	0.3
NC(=O)c1c(-c2cccc(Cl)c2)nn2c1CN(C(=O)NC1CC(COC(F)F)C1)CC2 (single isomer, unassigned) [Compound 245, 2-(3-Chlorophenyl)-N^5-(3-((difluoromethoxy)methyl)cyclobutyl)-6,7-dihydropyrazolo[1,5-a]pyrazine-3,5(4H)-dicarboxamide]	0.01 to 10	0.01 to 10		
CC(C)(C)NC(=O)N1Cc2c(C(N)=O)c(-c3ccc(F)c(Cl)c3)nn2C(COC(F)F)C1 (centres unmarked) [Compound A22, N^5-(tert-Butyl)-2-(3-chloro-4-fluorophenyl)-7-((difluoromethoxy)methyl)-6,7-dihydropyrazolo[1,5-a]pyrazine-3,5(4H)-dicarboxamide]	0.01 to 10	0.01 to 10		
CC(C)(C)NC(=O)N1CCn2nc(-c3cccc4ncccc34)c(C(N)=O)c2C1 [Compound 132, N^5-(tert-Butyl)-2-(quinolin-5-yl)-6,7-dihydropyrazolo[1,5-a]pyrazine-3,5(4H)-dicarboxamide]	100 to 2000	100 to 2000		
CC(C)(C)NC(=O)N1Cc2c(C(N)=O)c(-c3cccc(F)c3)nn2C2(CC2)C1 [Compound A131, N^5′-(tert-Butyl)-2′-(3-fluorophenyl)-4′H-spiro[cyclopropane-1,7′-pyrazolo[1,5-a]pyrazine]-3′,5′(6′H)-dicarboxamide]	10 to 100	10 to 100		
CO[C@H]1C[C@@H](NC(=O)N2CCn3nc(-c4cccc(Cl)c4)c(C(N)=O)c3C2)C1 [Compound 177, 2-(3-Chlorophenyl)-N^5-((1s,3s)-3-methoxycyclobutyl)-6,7-dihydropyrazolo[1,5-a] pyrazine-3,5(4H)-dicarboxamide]	0.01 to 10	0.01 to 10		
CS(=O)(=O)[C@H]1C[C@@H](NC(=O)N2CCn3nc(-c4cccc(Cl)c4)c(C(N)=O)c3C2)C1 [Compound 273, 2-(3-Chlorophenyl)-N^5-((1s,3s)-3-(methylsulfonyl)cyclobutyl)-6,7-dihydropyrazolo[1,5-a] pyrazine-3,5(4H)-dicarboxamide]	0.01 to 10	0.01 to 10		
CC1(NC(=O)N2CCn3nc(-c4ccc(F)c(Cl)c4)c(C(N)=O)c3C2)CC(C(F)F)C1 (single isomer, unassigned) [Compound 258, 2-(3-Chloro-4-fluorophenyl)-N^5-(3-(difluoromethyl)-1-methylcyclobutyl)-6,7-dihydropyrazolo[1,5-a]pyrazine-3,5(4H)-dicarboxamide]	0.01 to 10	0.01 to 10	0.7	0.5
NC(=O)c1c(-c2ccc(F)c(Cl)c2)nn2c1CN(C(=O)NC1CC(F)(F)C1)[C@@H]1COC[C@@H]12 [Compound 353, (5aS,8aR)-2-(3-Chloro-4-fluorophenyl)-N^5-(3,3-difluorocyclobutyl)-5a,6,8,8a-tetrahydrofuro[3,4-e]pyrazolo [1,5-c]pyrazine-3,5(4H)-dicarboxamide]	0.01 to 10	0.01 to 10		
NC(=O)c1c(-c2ccc(F)c(Cl)c2)nn2c1CN(C(=O)NC1CC3(CC3)C1)CC2 [Compound 195, 2-(3-Chloro-4-fluorophenyl)-N^5-(spiro [2.3]hexan-5-yl)-6,7-dihydropyrazolo[1,5-a] pyrazine-3,5(4H)-dicarboxamide]	0.01 to 10	0.01 to 10		
NC(=O)c1c(-c2ccc(Cl)c(Cl)c2)nn2c1CN(C(=O)NC1CC3(C1)CC(F)(F)C3)CC2 [Compound 208, 2-(3,4-Dichlorophenyl)-N^5-(6,6-difluorospiro [3.3]heptan-2-yl)-6,7-dihydropyrazolo[1,5-a] pyrazine-3,5(4H)-dicarboxamide]	0.01 to 10	0.01 to 10		
CC1(CNC(=O)N2CCn3nc(-c4ccc(F)c(Cl)c4)c(C(N)=O)c3C2)CC(F)(F)C1 [Compound 229, 2-(3-Chloro-4-fluorophenyl)-N^5-((3,3-difluoro-1-methylcyclobutyl)methyl)-6,7-dihydropyrazolo[1,5-a]pyrazine-3,5(4H)-dicarboxamide]	0.01 to 10	0.01 to 10		
NC(=O)c1c(-c2ccc(F)c(Cl)c2)nn2c1CN(C(=O)NCC1CC(F)(F)C1)CC2 [Compound 193, 2-(3-Chloro-4-fluorophenyl)-N^5-((3,3-difluorocyclobutyl)methyl)-6,7-dihydropyrazolo[1,5-a] pyrazine-3,5(4H)-dicarboxamide]	0.01 to 10	0.01 to 10		
NC(=O)c1c(-c2ccc(Cl)c(Cl)c2)nn2c1CN(C(=O)N[C@H]1C[C@@H](F)C1)CC2 [Compound 203, 2-(3,4-Dichlorophenyl)-N^5-((1s,3s)-3-fluorocyclobutyl)-6,7-dihydropyrazolo[1,5-a] pyrazine-3,5(4H)-dicarboxamide]	0.01 to 10	0.01 to 10		
CC12CC3CC(C)(C1)CC(NC(=O)N1CCn4nc(-c5ccc(Cl)c(Cl)c5)c(C(N)=O)c4C1)(C3)C2 [Compound A92, 2-(3,4-Dichlorophenyl)-N^5-((1r,3R,5S,7r)-3,5-dimethyladamantan-1-yl)-6,7-dihydropyrazolo[1,5-a]pyrazine-3,5(4H)-dicarboxamide]	0.01 to 10	0.01 to 10		
NC(=O)c1c(-c2ccc(F)c(Cl)c2)nn2c1CN(C(=O)NC1CCCC1)CC2C(F)F (centres unmarked) [Compound A11, 2-(3-Chloro-4-fluorophenyl)-N^5-cyclopentyl-7-(difluoromethyl)-6,7-dihydropyrazolo[1,5-a]pyrazine-3,5(4H)-dicarboxamide]	0.01 to 10	0.01 to 10		
NC(=O)c1c(-c2ccc(F)c(Cl)c2)nn2c1CN(C(=O)N[C@H]1C[C@H](OC(F)(F)F)C1)CC2 [Compound 264, 2-(3-Chloro-4-fluorophenyl)-N^5-((1r,3r)-3-(trifluoromethoxy)cyclobutyl)-6,7-dihydropyrazolo[1,5-a]pyrazine-3,5(4H)-dicarboxamide]	0.01 to 10	0.01 to 10		
CC(C)(NC(=O)N1CCn2nc(-c3ccc(F)c(Cl)c3)c(C(N)=O)c2C1)C(F)F [Compound 185, 2-(3-Chloro-4-fluorophenyl)-N^5-(1,1-difluoro-2-methylpropan-2-yl)-6,7-dihydropyrazolo[1,5-a]pyrazine-3,5(4H)-dicarboxamide]	0.01 to 10	0.01 to 10		
